Assay results reported in patent US20160157484A1, “NATURAL ANTIMICROBIAL COMPOSITIONS” (Lincoln Manufacturing Inc., priority 2011, published 2016).

Test: Solubility and stability of 20% and 25% lauric acid in solvents and solvent mixtures

For Glycereth 2-Cocoate, the “Solubility of 20% Lauric Acid” value (20% lauric acid in the named solvent) was “Not Soluble” and the “Solubility of 25% Lauric Acid” value (25% lauric acid in the named solvent) was “Not Soluble”.
